{"source": "patent US8580789B2", "about": "“Treating glaucoma” (The Cleveland Clinic Foundation, priority 2007, dated 2013)", "key": {"[1]": {"system": "optic nerve/lamina cribrosa complex", "assay": "Surface wave velocity (stiffness) across the optic nerve/lamina cribrosa complex of whole globes, Sonic Eye elastometer", "design": "species or system porcine", "settings": "for Mean ON/LCC Stiffness, After Glutaraldehyde Crosslinking: Example 2, GTA annular sponge on PS only ~30 min", "protocol": "Surface wave velocity (SWV) is a measure of tissue stiffness, and is performed by detecting the velocity of an ultrasonic wave between 2 points (Sonic Eye, Priavision, Menlo Park, Calif.) (Dupps W J, et al., J Refract Surg; 23: 66-75 (2007)). 19 porcine eyes were divided into 2 groups. In group 1 (6 eyes), the SWV across the exposed optic nerve/lamina cribrosa complex (ON/LCC) was initially measured at the eyes' physiologic IOP and at 100 mmHg. The porcine globes were cannulated with IV tubing to facilitate the change in IOP. In group 2 (13 eyes), the pre-treatment SWV was measured across the same region and atop the peri-papillary sclera, after which both regions were treated with riboflavin 1%, Q 5 min×6, and UVA irradiation (˜365 nm at 3 mW/cm^2) for 30 min per eye. The SWV was then re-measured in each eye at the pre-treatment IOP and at 100 mmHg.\nAn annular sponge soaked in GTA was exposed to the peripapillary sclera for ˜30 minutes, and not the ON/LCC. Measurements were repeated as above, but also along each quadrant of peripapillary sclera to ensure uniformity and symmetry of crosslinking around the ON/LCC. The results are summarized as follows:\nEighteen porcine globes were divided evenly into 3 groups. The optic nerves were transected to expose the ON/LC, and each globe was infused through an in-line pressure transducer for direct IOP control. Surface wave velocity, a non-destructive measure of tissue stiffness, was measured across the ON/LC and PS before and after collagen crosslinking at IOP of 10 and 30 mmHg (groups 1 and 2) and at each globe's preinflation IOP and 80 mmHg (group 3). In group 3, papillary strain was measured by analyzing the displacement of fiducial marks immediately adjacent to the ON/LC using digital photography.\nSurface wave velocity (SWV) is a measure of tissue stiffness that has been used in dermatologic applications to measure age-related changes (Potts R O, et al., J Invest Dermatol.; 82(1):97-100 (1984); Potts R O, et al., J Biomech.; 16(6):365-372 (1983); Davis B R, et al., Exp Gerontol; 24(3):201-210 (1989)), softening effects of tissue hydration and skin creams (Vexler A, et al., J Invest Dermatol; 113(5):732-739 (1999)), and sclerosing effects of radiation on breast skin (Gorodetsky R, et al., Int J Radiat Oncol Biol Phys.; 45(4):893-900 (1999)). When acoustic waves in the 0.5 to 30 kHz frequency range are used, propagation speed in skin is related to the density and stiffness of the tissue (Pereira J M, et al., J Biomech.; 23(8):745-751 (1990)). A prototype handheld ocular surface elastometer (Sonic Eye, Priavision, Menlo Park, Calif.) with an operating frequency within this range (4 kHz) and a fixed 4.5 mm wave propagation distance has been described in detail elsewhere (Dupps W J Jr, et al., J Refract Surg.; 23(1):66-75 (2007)). The Sonic Eye was used in this study as a non-destructive means of measuring local in situ tissue stiffness across and around the optic nerve head.\nEighteen porcine eyes were obtained from a local abattoir (Heffelfingers Meats, Inc., Jeromesville, Ohio) and were used within 24 hours postmortem. The optic nerves were dissected under microscopic visualization to expose the ON/LC (FIG. 1). […]\nThree experimental groups of 6 eyes each were defined. In group 1, SWV across the optic nerve/lamina cribrosa complex and peripapillary scleral regions of interest were measured at 10 and 30 mmHg to represent a physiological range of pressures. […]"}, "[2]": {"system": "porcine sclera", "settings": "scleral strips; 1 hour glutaraldehyde, 5 days glyceraldehydes, 30 minutes UVA for riboflavin/UVA; cited from earlier work"}}}
{"smiles": "O=CCCCC=O", "note": "[GTA, glutaraldehyde]", "values": [{"measurement": "Mean ON/LCC Stiffness, After Glutaraldehyde Crosslinking", "setting": "[1]; mean IOP 3 mmHg", "result": 29.5, "unit": "m/s"}, {"measurement": "Mean ON/LCC Stiffness, After Glutaraldehyde Crosslinking", "setting": "[1]; mean IOP 80 mmHg", "result": 29.3, "unit": "m/s"}, {"measurement": "Stiffness of Optic Nerve/Lamina Cribrosa Complex, Post-crosslinking Mean ± SD", "setting": "[1]; Example 3 Group 3, 4% GTA on PS only 30 min, Low IOP = pre-inflation 2-4 mmHg", "result": "29.5±2.9", "unit": "m/s"}, {"measurement": "Rise in porcine scleral stress (rigidity)", "setting": "[2]", "result": 8, "unit": "×"}]}
